{
  "source": "paper PMC9232612",
  "about": "“A phase 1b randomised controlled trial of a glucagon-like peptide-1 and glucagon receptor dual agonist IBI362 (LY3305677) in Chinese patients with type 2 diabetes” (Nature Communications, 2022)",
  "origin": "cited, not measured here",
  "key": {"patients with T2D": {"tested_on": "patients with T2D", "settings": "daily-dose, Japanese patients with T2D; cited from earlier work", "source_text": "Several GLP-1 and glucagon dual agonists have shown either glycaemic control or weight loss benefit in various settings. […] SAR425899, a […] GLP-1 and glucagon receptor dual agonist, achieved placebo-adjusted mean HbA1c level reductions up to 0.75% in patients with overweight or obesity and T2D[11]."}, "[1]": {"settings": "phase 2a, after 49 days of drug exposure; ref Parker VER et al. JCEM 2021;105(3):803-20; cited from earlier work", "method": "page 3: doses of IBI362 (4.5 and 6 mg). It would be helpful to provide the time course of the GI adverse events to ascertain whether they occurred during the up-titration phase and whether the symptoms persisted during the 12 weeks. Only one participant in the IBI362 4.5 mg cohort withdrew from the study due to decreased appetite. The cardiovascular safety profile of IBI362 reported in this manuscript raised some safety concerns and will be addressed in greater detail herein. Cardiovascular disorders were reported in 5 participants receiving IBI362 compared with one in each of the placebo and ..."}},
  "data": [
    {"substance": "Cotadutide", "values": [
      {"measurement": "reduction in body weight from baseline to day 50 (up to)", "setting": "patients with T2D", "result": "up to 3.3%"},
      {"measurement": "mean change in diastolic BP", "setting": "[1]", "result": "+1.16 mm Hg"},
      {"measurement": "mean change in systolic BP", "setting": "[1]", "result": -2.8, "unit": "mm Hg"},
      {"measurement": "mean increase in heart rate", "setting": "[1]", "result": "+7.1 BPM"}
    ]}
  ]
}
